# Data from patent US7019034B2, “Compositions and methods for reducing serum glucose and triglyceride levels in diabetic mammals” (Allergan, Inc., priority 2003, dated 2006).
# pEC50, pKi: −log10 of the molar value.
# Columns and labels:
# RXRα = target: T1, RXRα (Homo sapiens, UniProt P19793); experiment: ligand binding assay, RXRα; settings: read-out: RXR Bind Ki α
# T1 construct: expressed in transfected cells
# T1 sequence (P19793 1-462): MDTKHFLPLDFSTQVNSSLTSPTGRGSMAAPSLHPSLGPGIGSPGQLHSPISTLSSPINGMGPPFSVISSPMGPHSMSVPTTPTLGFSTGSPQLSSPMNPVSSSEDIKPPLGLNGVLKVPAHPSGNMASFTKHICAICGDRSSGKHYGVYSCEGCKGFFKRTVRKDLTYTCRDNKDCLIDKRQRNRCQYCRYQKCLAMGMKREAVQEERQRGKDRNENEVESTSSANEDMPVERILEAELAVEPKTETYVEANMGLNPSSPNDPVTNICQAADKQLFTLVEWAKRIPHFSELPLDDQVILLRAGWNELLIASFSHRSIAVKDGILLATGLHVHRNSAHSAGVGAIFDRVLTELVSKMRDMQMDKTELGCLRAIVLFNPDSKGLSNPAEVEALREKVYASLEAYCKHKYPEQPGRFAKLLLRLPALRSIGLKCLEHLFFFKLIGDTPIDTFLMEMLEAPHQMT
# Description: (§1) A holoreceptor transactivation assay and a ligand binding assay which measure the antagonist/agonist like activity of the compounds of the invention, or their ability to bind to the several retinoid receptor subtypes, respectively, are described in published PCT Application No. WO WO93/11755 (particularly on pages 30–33 and 37–41) published on Jun. 24, 1993, the specification of which is also incorporated herein by reference. […] The results obtained in this assay are expressed in EC50 numbers, as they are also in the chimeric receptor transactivation assay. The results of the ligand binding assay are expressed in Ki numbers. (See Cheng et al. Biochemical Pharmacology Vol. 22 pp 3099–3108, expressly incorporated herein by reference.)
# (§2) In Table 1 NA stands for not active at all as an agonist. ND stands for not determined. The first row of numbers pertaining to each compound is the measured EC50 number. […] The third row of numbers pertaining to each compound is the binding Ki number.
# RARα [1] = target: T2, RARα (Homo sapiens, UniProt P10276); experiment: chimeric receptor transactivation assay, RARα; format: cell-based
# T2 sequence (P10276 1-462): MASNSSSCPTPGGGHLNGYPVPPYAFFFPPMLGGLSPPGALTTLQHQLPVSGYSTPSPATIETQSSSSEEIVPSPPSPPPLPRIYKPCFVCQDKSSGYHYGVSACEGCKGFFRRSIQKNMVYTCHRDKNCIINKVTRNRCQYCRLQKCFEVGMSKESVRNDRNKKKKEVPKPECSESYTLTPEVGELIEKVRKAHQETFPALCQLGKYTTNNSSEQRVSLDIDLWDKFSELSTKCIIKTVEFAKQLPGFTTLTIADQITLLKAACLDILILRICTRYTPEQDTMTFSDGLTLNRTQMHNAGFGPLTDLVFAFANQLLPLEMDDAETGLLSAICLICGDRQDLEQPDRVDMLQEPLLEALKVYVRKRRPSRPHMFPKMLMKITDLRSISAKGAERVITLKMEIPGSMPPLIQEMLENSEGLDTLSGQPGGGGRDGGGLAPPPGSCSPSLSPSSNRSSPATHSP
# Description: The specification of U.S. Pat. No. 5,455,265 is hereby expressly incorporated by reference.
# Table 1 discloses the activity of certain exemplary compounds of the invention in the above-described receptor transactivation and binding assays. Particularly, the transactivation data pertaining to activation of the RAR receptors were obtained in the chimeric assay, and the transactivation data pertaining to the activation of RXR receptors were obtained in the holoreceptor assay.
# Efficacy in a transactivation assay is expressed as a percentage of the maximum potency attained by the compound compared to a standard which, in this case, is the compound named (2E,4E,1′S,2′S)-3-methyl-5-[2′-methyl-2′-(5,5,8,8-tetramethyl-5,6,7,8-tetrahydro-naphthalen-2-yl)-cyclopropyl]-penta-2,4-dienoic acid.
# as §2
# RARα [2] = target: T2, RARα; experiment: ligand binding assay, RARα; settings: read-out: RAR Bind. Ki α
# Description: as §1, §2
# RXRγ = target: T3, RXRγ (UniProt P28705); experiment: holoreceptor transactivation assay, RXRγ; format: cell-based
# T3 sequence (P28705 1-463): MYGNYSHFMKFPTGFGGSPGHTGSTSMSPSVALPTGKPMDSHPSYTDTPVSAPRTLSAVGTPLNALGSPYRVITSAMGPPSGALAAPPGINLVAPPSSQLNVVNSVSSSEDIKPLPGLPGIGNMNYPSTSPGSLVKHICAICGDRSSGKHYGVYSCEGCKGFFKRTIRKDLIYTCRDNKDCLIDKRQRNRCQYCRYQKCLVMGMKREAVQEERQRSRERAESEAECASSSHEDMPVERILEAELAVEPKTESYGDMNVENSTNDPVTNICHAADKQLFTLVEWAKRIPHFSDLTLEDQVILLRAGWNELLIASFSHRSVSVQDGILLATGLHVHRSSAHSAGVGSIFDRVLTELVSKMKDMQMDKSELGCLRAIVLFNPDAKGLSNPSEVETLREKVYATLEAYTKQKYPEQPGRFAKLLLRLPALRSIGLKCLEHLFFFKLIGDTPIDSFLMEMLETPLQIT
# Description: The results obtained in this assay are expressed in EC50 numbers, as they are also in the chimeric receptor transactivation assay. The results of the ligand binding assay are expressed in Ki numbers.
# Particularly, the transactivation data pertaining to activation of the RAR receptors were obtained in the chimeric assay, and the transactivation data pertaining to the activation of RXR receptors were obtained in the holoreceptor assay.
# as §2
# RXRβ = target: T4, RXRβ (UniProt P28704); experiment: ligand binding assay, RXRβ; settings: read-out: RXR Bind Ki β
# T4 sequence (P28704 1-520): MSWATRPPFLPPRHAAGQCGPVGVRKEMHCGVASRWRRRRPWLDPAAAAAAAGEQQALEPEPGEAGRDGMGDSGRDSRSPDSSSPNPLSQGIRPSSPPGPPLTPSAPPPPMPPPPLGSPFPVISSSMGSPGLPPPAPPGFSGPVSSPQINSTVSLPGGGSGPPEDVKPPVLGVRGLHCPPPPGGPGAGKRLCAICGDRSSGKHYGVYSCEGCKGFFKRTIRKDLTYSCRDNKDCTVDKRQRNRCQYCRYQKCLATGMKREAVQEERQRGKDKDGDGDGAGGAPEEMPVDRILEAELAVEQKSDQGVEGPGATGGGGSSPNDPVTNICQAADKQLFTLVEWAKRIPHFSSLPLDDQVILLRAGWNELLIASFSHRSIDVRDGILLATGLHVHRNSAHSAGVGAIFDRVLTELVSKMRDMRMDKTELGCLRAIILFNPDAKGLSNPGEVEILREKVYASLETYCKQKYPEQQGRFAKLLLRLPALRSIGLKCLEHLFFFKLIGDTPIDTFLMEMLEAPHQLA
# Description: as §1, §2
pKi (RXRα),"pEC50 (RARα [1]; NA = not active at all as an agonist, read-out: RAR Trans. EC50 α)",RAR α efficacy in percentage as compared to the standard compound (RARα [1]; number in brackets) [%],pKi (RARα [2]),"pEC50 (RXRγ; NA = not active at all as an agonist, read-out: RXR Trans. EC50 γ)",RXR γ efficacy in percentage as compared to the standard compound (RXRγ; number in brackets) [%],pKi (RXRβ),Compound
7.66,7.43,15,6.82,8.05,18,7.64,"CCOc1cc2c(cc1\C(CC)=C(F)/C=C/C(C)=C/C(=O)O)C(C)(C)CCC2(C)C [Compound 2, (2E,4E,6E)-7-(3-Ethoxy-5,5,8,8-tetramethyl-5,6,7,8-tetrahydronaphthalen-2-yl)-6-fluoro-3-methylnona-2,4,6-trienoic acid]"
8.22,–,–,6.23,–,–,7.24,CCCOc1cc2c(cc1\C(C)=C(F)/C=C/C(C)=C/C(=O)O)C(C)(C)CCC2(C)C [Compound 4]
